What was measured:
[1] = tested on: recurrent GBM; details: cited from earlier work
[2] = tested on: GSC lines (387 and 3565); assay: Temozolomide cytotoxicity assay; assay type: cell-based, human; details: 7 days
Description: Two GSC lines (387 and 3565) were treated with indicated concentrations of temozolomide for 7 days. Relative cell number was assayed by CellTiter-Glo on day 7 and normalized to PBS control.
GSCs were plated at 1,000 cells/well in 96-well tissue culture treated plates (TPP) and allowed to attach overnight. For viral infection and growth inhibition assays, wild-type ZIKV-Dakar, ZIKV-Brazil, or mouse adapted ZIKV-Dakar were used at an MOI of 5. For combined drug+virus therapy experiments, wild-type parental ZIKV-Cambodia and its derivative ZIKV-E218A were used for infection. Temozolomide (TMZ, Sigma) was dissolved in PBS and diluted in Neurobasal complete media. ZIKV was added at an MOI of 5 by itself or 4 h before TMZ (250 μM) addition. Cell supernatants were stored at −80° C. for subsequent analysis.

Row | Molecule | safety in patients ([1]; in vivo) | overall response rate ([1]; recurrent GBM) | effective TMZ concentration [2] [µM]
1 | nivolumab: immune checkpoint inhibitor tested in CheckMate 143 | safe | lower than the current standard, bevacizumab | 
2 | Cn1nnc2c(C(N)=O)ncn2c1=O [TMZ, Temozolomide] |  |  | 250

Source: patent publication US12274725B2, “Zika virus strains for treatment of glioma” (priority 2017, dated 2025)
